Source: US12240860B2, “Heterobicyclic carboxylic acids and salts thereof” (SHENZHEN IONOVA LIFE SCIENCE CO., LTD., priority 2018, dated 2025)

Test: DVS (Dynamic Vapor Sorption) moisture sorption/desorption
Type: physicochemical
Conditions: 25° C.
Description: DVS (Dynamic Vapor Sorption)
Around 20 mg of samples were used to test its moisture sorption/desorption profiles at 25° C. under 0%˜95%˜0% relative humidity (RH) cycle with the following parameters:
Equilibrium: dm/dt: 0.01%/min.
RH (%) measurement step scope: 0%95%0%; RH (%) measurement step: 5%

moisture at 80% RH (DVS): 3.175%
Hygroscopicity Classification (DVS) (80% RH): hygroscopic
SMILES: Cc1sc2ccn(Cc3ccc(C(F)(F)F)cc3)c2c1C(=O)NC1(c2ccc(C(=O)O)cc2)CC1 [C003 free acid, 4-(1-{[2-Methyl-4-(4-trifluoromethyl-benzyl)-4H-thieno[3,2-b]pyrrole-3-carbonyl]-amino}-cyclopropyl)-benzoic acid]
